This is an account of results in publication PMC4532424, “The Novel Cyclophilin Inhibitor CPI-431-32 Concurrently Blocks HCV and HIV-1 Infections via a Similar Mechanism of Action” (PLoS ONE, 2015).

Like-named read-outs stand apart in the source and are kept apart here. Non-standard residues stand in square brackets, D forms with d. Residues, ends and D or L forms follow the SMILES beside them. NMeThr(4R-Me,4-(CH2)6NHAc) = CN[C@H](C(=O)O)[C@H](O)[C@H](C)CCCCCCNC(C)=O; NMeL = CN[C@@H](CC(C)C)C(=O)O; NMeV = CN[C@H](C(=O)O)C(C)C; dNMeA = CN[C@H](C)C(=O)O; Abu = CC[C@H](N)C(=O)O

The subject of one series is HIV-1 JR-CSF. The experiment in a line: Established HIV-1 infection of CD4+ T-lymphocytes, single versus daily drug addition, p24 ELISA. Conditions: 2 μM three days post-infection then daily 0.5 μM; after fifteen days. It counts as cell-based. The procedure: CD4+ T-lymphocytes (A) and Huh7.5.1 cells (B) (0.5 x 10^6 cells) (triplicates) were exposed to HIV-1 JR-CSF and HCV JFH-1. Drugs (2 μM) were added 3 h pre-viral exposure (top panels) or 3 days post-viral exposure (bottom panels). Viral replications were monitored by HIV-1 p24 and HCV core ELISAs. C. CD4+ T-lymphocytes (0.5 x 10^6 cells) (triplicates) were exposed to HIV-1 JR-CSF. Drugs were initially added 3 days post-viral exposure (2 μM) and then daily (0.5 μM). Viral replications were monitored by HIV-1 p24 and HCV core ELISAs. […] D. Model for the HIV-1/HCV co-culture system.
For orientation: In an ELISA, binding on a coated surface is turned into a signal by an enzyme label.

The test system of series [1] is HCV ALV-resistant (D320E/Y321N). As to the kind of experiment: HCV Luc-Con1 replicon replication in Huh7.5 cells, luciferase. The series is classed as cell-based. Conditions: read-out: EC50, inhibition of HCV replication. The procedure:
(§1) The GT1b subgenomic firefly luciferase reporter replicon pFK-I389/NS3–3 was provided by R. Bartenschlager. The GT1B subgenomic NS3 (R155Q/A156T), NS5A (L31V, D320E/Y321N, S328P and P313A/P318A), and NS5B (S282T) mutants were created as previously. Half-maximal effective concentration (EC50) measurements were conducted as previously.
(§2) We took advantage of the DAA-resistant HCV genotype 1b Con1 replicons that we previously generated: the NS3 inhibitor-resistant R155Q/A156T NS3, the NS5A inhibitor-resistant L31V NS5A replicon, and the NS5B inhibitor-resistant S282T NS5B replicons. […] EC50 HCV data are expressed in nM whereas EC50 HIV-1 data are expressed in μM.
For orientation: In antiviral work, replicon cells carry a viral genome segment that copies itself.

The subject of series [2] is HCV CsA-sensitive (P313A/P318A). The description is as above. The series is classed as cell-based. Conditions: read-out: EC50, inhibition of HCV replication. The procedure: as §1, §2
Series [3] concerns HCV NS3-resistant (R155Q/A156T). The description is as above. The series is classed as cell-based. As to conditions: read-out: EC50, inhibition of HCV replication. On the procedure: as §1, §2
In series [4] the test system is HCV NS5A-resistant (L31V). Described as above. It counts as cell-based. As to conditions: read-out: EC50, inhibition of HCV replication. On the procedure: as §1, §2
The subject of series [5] is HCV NS5B-resistant (S282T). The description is as above. It counts as cell-based. As to conditions: read-out: EC50, inhibition of HCV replication. The procedure:
as §1, §2

For another series, the system named is HCV wild-type (Con1b). The series is described as above. The series is classed as cell-based. Conditions: 72 h, read-out: EC50, inhibition of HCV replication. The procedure:
as §1, §2

The next series has as its target T1, Human recombinant CypA (Homo sapiens, UniProt P62937).
T1 construct: purchased Atgen
As to the kind of experiment: α-chymotrypsin-coupled CypA isomerase inhibition assay. The series is classed as biochemical. As to conditions: one representative experiment, mean ± SD; 10 nM CypA, 5°C. The procedure: Succinyl-AAPF-pNA peptide substrate (Sigma) was dissolved to 3.2 mM in dried LiCl/trifluoroethanol. […] All solutions were equilibrated, and reactions conducted at 5°C. Reactions were initiated by mixing 95 μL reaction mix with 5 μL peptide preloaded in multiple wells of 96-well plates and measuring OD405 nm in each well at 6-sec intervals for 6 min using a BMG Polarstar Galaxy plate reader. Data were fitted with Graphpad Prism 6.0 to obtain first-order rate constants.

The subject of a further series is HIV-1 NL4.3. As to the kind of experiment: HIV-1 nuclear import analysis, integrase Western blot of cytoplasmic and nuclear extracts. It counts as cell-based. Conditions: 2 μM; 6 h post-infection; nuclear extract. On the procedure:
CD4+ HeLa cells (10^7 cells) were infected with NL4.3 (1 μg of p24) derived from 293T-transfected cells in the presence or absence of CPI-431-32 (2 μM). Six hours post-infection, cells were fractionated using the Thermo Scientific NE-PER nuclear and cytoplasmic extraction kit (Life Technologies). Cytoplasmic and nuclear extracts were analyzed by Western blotting using anti-HIV-1 integrase (Abcam), anti-CypA (Abcam) and anti-histone H2 (Abcam) antibodies.
Fig 4 CPI-431-32 blocks HIV-1 reverse transcription and nuclear import. TZM cells were infected with DNase-treated NL4-3 HIV-1 together with DMSO or CPI-431-32 (2 μM). Target cell DNA was isolated at the indicated times and was used to detect early (A) and late HIV-1 reverse transcripts (B). TZM cells were infected with NL4.3 in the presence or absence of CPI-431-32 (2 μM). Six hours post-infection, cells were fractionated and cytoplasmic and nuclear extracts analyzed by Western blotting (C). […]
To further elucidate the effects of CypA-capsid disruption, we analyzed how CPI-431-32 affects the distribution of incoming HIV-1 cores within the first 6 hours of infection as determined by the presence of the HIV-1 integrase protein. TZM cells were infected with HIV-1 NL4.3 for 6 h in the absence or presence of CPI-431-32, then fractionated into cytosolic and nuclear extracts for quantitation of HIV-1 integrase by Western blotting. […]
For orientation: Immunoblotting shows a protein as a band on a membrane.

Another series concerns human T cells. As to conditions: cited from earlier work.
[6] abbreviates: Hepatitis C virus, Huh7.5, 72 h.

T1 sequence (P62937 whole entry): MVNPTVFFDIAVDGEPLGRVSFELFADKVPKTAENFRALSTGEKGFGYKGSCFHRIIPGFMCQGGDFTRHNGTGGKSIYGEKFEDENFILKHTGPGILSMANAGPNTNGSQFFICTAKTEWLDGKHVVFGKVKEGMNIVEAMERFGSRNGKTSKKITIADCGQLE

As usually defined, the EC50 is the concentration that produces a half-maximal response. The term IC50 denotes the concentration that inhibits the measured activity by half. In the case of `CC[C@@H]1NC(=O)[C@H]([C@H](O)[C@H](C)CCCCCCNC(C)=O)N(C)C(=O)[C@H](C(C)C)N(C)C(=O)[C@H](CC(C)C)N(C)C(=O)[C@H](CC(C)C)N(C)C(=O)[C@@H](C)NC(=O)[C@H](C)NC(=O)[C@H](CC(C)C)N(C)C(=O)[C@H](C(C)C)NC(=O)[C@H](CC(C)C)N(C)C(=O)[C@@H](C)N(C)C1=O` [CPI-431-32] (cyclo(A[dA][NMeL][NMeL][NMeV][NMeThr(4R-Me,4-(CH2)6NHAc)][Abu][dNMeA][NMeL]V[NMeL])), the “Effect on HIV-1 replication (in words)” value in the series with HIV-1 JR-CSF is on record as “almost totally repressed HIV-1 replication”. For the same compound, the EC50 worked out at 26.5 ± 3.2 nM in series [1] (HCV ALV-resistant (D320E/Y321N) replicon, Huh7.5 cells, 72 h); 4.7 ± 0.2 nM in series [2] (HCV CsA-sensitive (P313A/P318A) replicon, Huh7.5 cells, 72 h); 11.3 ± 0.2 nM in series [3] (HCV NS3-resistant (R155Q/A156T) replicon, Huh7.5 cells, 72 h); 8.9 ± 0.4 nM in series [4] (HCV NS5A-resistant (L31V) replicon, Huh7.5 cells, 72 h); 8.3 ± 0.4 nM in series [5] (HCV NS5B-resistant (S282T) replicon, Huh7.5 cells, 72 h); 9.3 ± 0.4 nM in the series with HCV wild-type (Con1b). Further, on Human recombinant CypA, the IC50 is 1.8 ± 0.6 nM. In the series with HIV-1 NL4.3, the “Nuclear accumulation of HIV-1 integrase (in words)” value is “completely prevented the nuclear accumulation of integrase”.

As to `C/C=C/C[C@@H](C)[C@@H](O)[C@H]1C(=O)N[C@@H](CC)C(=O)N(C)[C@H](C)C(=O)N(CC)[C@@H](C(C)C)C(=O)N[C@@H](C(C)C)C(=O)N(C)[C@@H](CC(C)C)C(=O)N[C@@H](C)C(=O)N[C@H](C)C(=O)N(C)[C@@H](CC(C)C)C(=O)N(C)[C@@H](CC(C)C)C(=O)N(C)[C@@H](C(C)C)C(=O)N1C` [ALV, Alisporivir], the EC50 came out at 44.2 ± 5.8 nM in series [1] (setting [6]); 5.2 ± 0.6 nM in series [2] (setting [6]); 17.7 ± 1.9 nM in series [3] (setting [6]); 16.5 ± 2.1 nM in series [4] (setting [6]); 15.6 ± 2.4 nM in series [5] (setting [6]); 16.6 ± 0.8 nM in the series with HCV wild-type (Con1b) (Hepatitis C virus). The IC50 on Human recombinant CypA came out at 2.8 ± 0.4 nM. For the same compound, the “Cellular toxicity (in words)” value in the series with human T cells is listed as “lack of cellular toxicity”.
